Reference: US20170015649A1, “N-Thio-anthranilamid compounds and their use as pesticides” (BASF SE, priority 2005, published 2017)
Where two headings read alike, the source gives them in different places.

What was measured:
[1] = test system: Vetch Aphid (Megoura viciae); test: Activity against vetch aphid, bean leaf disks; format: in vivo; conditions: foliar, 144 h, 2500 ppm, leaf disks sprayed with 2.5 μl, 6 days, compared to 0% mortality of untreated controls, read-out: mortality
Procedure: Bean leaf disks were placed into microtiterplates filled with 0.8% agar-agar and 2.5 ppm OPUS™. The leaf disks were sprayed with 2.5 μl of the test solution and 5 to 8 adult aphids were placed into the microtiterplates which were then closed and kept at 22-24° C. and 35-45% under fluorescent light for 6 days. Mortality was assessed on the basis of vital, reproduced aphids. Tests were replicated 2 times.

[2] = test system: Southern Armyworm (Spodoptera eridania), 2nd Instar Larvae; test: whole plant or invertebrate; format: in vivo; conditions: in Phaseolus lunatus, foliar, 120 h
Procedure: The active compounds were formulated for testing the activity against insects and arachnids as a 10.000 ppm solution in a mixture of 35% acetone and water, which was diluted with water, if needed.
A Sieva lima bean leaf was dipped in the test solution and allowed to dry. The leaf was then placed in a petri dish containing a filter paper on the bottom and ten 2nd instar caterpillars. At 5 days, observations are made of mortality and reduced feeding.

[3] = test system: Silverleaf Whitefly (Bemisia argentifolii); test: Activity against silverleaf whitefly, cotton cotyledon dip; format: in vivo; conditions: 72 h, cotyledons dipped, adults, 3 days after treatment
Procedure: (§1) The active compounds were formulated in 50:50 acetone:water and 100 ppm Kinetic™ surfactant.
Selected cotton plants were grown to the cotyledon state (one plant per pot). The cotyledons were dipped into the test solution to provide complete coverage of the foliage and placed in a well-vented area to dry. Each pot with treated seedling was placed in a plastic cup and 10 to 12 whitefly adults (approximately 3-5 day old) were introduced. The insects were collected using an aspirator and an 0.6 cm, non-toxic Tygon™ tubing (R-3603) connected to a barrier pipette tip. The tip, containing the collected insects, was then gently inserted into the soil containing the treated plant, allowing insects to crawl out of the tip to reach the foliage for feeding. The cups were covered with a reusable screened lid (150 micron mesh polyester screen PeCap from Tetko Inc). Test plants were maintained in the holding room at about 25° C. and 20-40% relative humidity for 3 days avoiding direct exposure to the fluorescent light (24 hour photoperiod) to prevent trapping of heat inside the cup. Mortality was assessed 3 days after treatment of the plants.

[4] = test system: Mediterranean Fruitfly (Ceratitis capitata); test: Activity against Mediterranean fruitfly, eggs in microtiterplates; format: in vivo; conditions: 144 h, eggs sprayed with 5 μl test solution, 6 days
Procedure: 50 to 80 eggs were placed into microtiterplates filled with 0.5% agar-agar and 14% diet in water. […] Mortality was assessed on the basis of the agility of the hatched larvae. Tests were replicated 2 times.

[5] = test system: Tobacco Budworm (Heliothis virescens); test: whole plant or invertebrate; conditions: 144 h
[6] = test system: Diamond Back Moth (Plutella xylostella); test: Activity against diamond back moth, cabbage leaf disk dip; format: in vivo; conditions: foliar
Procedure: The active compounds were formulated in 50:50 acetone:water and 0.1% (vol/vol) Alkamuls EL 620 surfactant. A 6 cm leaf disk of cabbage leaves was dipped in the test solution for 3 seconds and allowed to air dry in a Petri plate lined with moist filter paper. The leaf disk was inoculated with 10 third instar larvae and kept at 25-27° C. and 50-60% humidity for 3 days. Mortality was assessed after 72 h of treatment.

[7] = test system: Boll Weevil (Anthonomus grandis); test: Activity against boll weevil, eggs in microtiterplates; format: in vivo; conditions: eggs sprayed with 20 μl test solution, 3 to 5 days
Procedure: 10 to 15 eggs were placed into microtiterplates filled with 2% agar-agar in water and 300 ppm formaline. […] Mortality was assessed on the basis of the remaining unhatched eggs or larvae on the agar surface and/or quantity and depth of the digging channels caused by the hatched larvae. Tests were replicated 2 times.

[8] = test system: Cotton Aphid (Aphis gossypii); test: Activity against cotton aphid, cotton cotyledon dip; format: in vivo; conditions: 120 h, cotyledons dipped, after 5 days
From the text: as §1
Cotton plants at the cotyledon stage (one plant per pot) were infested by placing a heavily infested leaf from the main colony on top of each cotyledon. The aphids were allowed to transfer to the host plant overnight, and the leaf used to transfer the aphids was removed. The cotyledons were dipped in the test solution and allowed to dry. After 5 days, mortality counts were made.

[9] = 300 ppm, leaf dipped, at 5 days, read-out: mortality
[10] = 300 ppm, leaf disk dipped, third instar larvae, after 72 h, read-out: mortality

| melting point [°C] | Compound | mortality at 2500 ppm [1] [%] | mortality at 300 ppm [2, 9] [%] | mortality at 300 ppm [3] [%] | mortality at 2500 ppm [4] [%] | mortality at 2500 ppm [5] [%] | mortality at 300 ppm [6, 10] [%] | mortality at 2500 ppm [7] [%] | mortality at 300 ppm [8] [%] | mortality at 300 ppm [2] [%] | mortality at 300 ppm ([6]; 72 h) [%] |
| --- | --- | --- | --- | --- | --- | --- | --- | --- | --- | --- | --- |
| – | Cc1cc(Cl)cc(C(=O)N=S(C)C)c1NC(=O)c1cc(C(F)(F)F)nn1-c1ncccc1Cl [I.3-8] | > 75 | > 75 | > 90 | > 75 | > 75 | > 75 | > 75 | > 50 | – | – |
| – | CCS(C)=NC(=O)c1cc(Cl)cc(C)c1NC(=O)c1cc(Br)nn1-c1ncccc1Cl (centres unmarked) [I.3-25] | > 75 | > 75 | > 90 | > 75 | > 75 | > 75 | > 75 | > 50 | – | – |
| – | Cc1cc(C#N)cc(C(=O)N=S(C)C)c1NC(=O)c1cc(Br)nn1-c1ncccc1Cl [I.3-60] | – | – | – | – | – | > 75 | – | – | – | – |
| – | Cc1cccc(C(=O)NS(=O)(=O)N(C)C)c1NC(=O)c1cc(Br)nn1-c1ncccc1Cl [I.1-30] | – | – | – | – | – | – | – | – | > 75 | – |
| – | Cc1cc(Cl)cc(C(=O)N=S2(=O)CCCCC2)c1CC(=O)c1cc(Br)nn1-c1ccccc1Cl [I.4-22, 2-{2-[5-Bromo-2-(2-chloro-phenyl)-2H-pyrazol-3-yl]-2-oxo-ethyl}-5-chloro-3-methyl-N-(1-oxo-hexahydro-1lambda*6*-thiopyran-1-ylidene)-benzamide] | > 75 | > 75 | – | > 75 | > 75 | > 75 | > 75 | – | – | – |
| – | CCS(C)=NC(=O)c1cc(I)cc(C)c1NC(=O)c1cc(C(F)(F)F)nn1-c1ncccc1Cl (centres unmarked) [I.3-30] | > 75 | > 75 | > 90 | > 75 | > 75 | > 75 | > 75 | > 50 | – | – |
| 65 | CCS(C)=NC(=O)c1cc(C#N)cc(C)c1NC(=O)c1cc(C(F)(F)F)nn1-c1ncccc1Cl (centres unmarked) | – | – | – | – | – | – | – | – | – | – |
| – | Cc1cc(I)cc(C(=O)N=S(C)C)c1NC(=O)c1cc(C(F)(F)F)nn1-c1ncccc1Cl [I.3-23] | > 75 | > 75 | > 90 | > 75 | > 75 | > 75 | > 75 | > 50 | – | – |
| – | CCN(C)S(=O)(=O)NC(=O)c1cccc(C)c1NC(=O)c1cc(C(F)(F)F)nn1-c1ncccc1Cl [I.1-61] | – | – | – | – | – | – | – | – | > 75 | > 75 |
| 183 | Cc1cccc(C(=O)NS(=O)(=O)N(C)C)c1NC(=O)c1cc(C(F)(F)F)nn1-c1ncccc1Cl | – | – | – | – | – | – | – | – | – | – |
| – | Cc1cc(Cl)cc(C(=O)NS(=O)(=O)N(C)C)c1NC(=O)c1cc(C(F)(F)F)nn1-c1ncccc1Cl [I.1-47] | – | – | – | – | – | – | – | – | > 75 | > 75 |
| – | Cc1cccc(C(=O)N=S(C)C)c1NC(=O)c1cc(C(F)(F)F)nn1-c1ncccc1Cl [I.3-24] | > 75 | > 75 | – | > 75 | > 75 | > 75 | > 75 | > 50 | – | – |
| – | CCS(C)=NC(=O)c1cc(C#N)cc(C)c1NC(=O)c1cc(Br)nn1-c1ncccc1Cl (centres unmarked) [I.3-61] | – | – | – | – | – | > 75 | – | – | – | – |
| – | CCN(C)S(=O)(=O)NC(=O)c1cccc(C)c1NC(=O)c1cc(Br)nn1-c1ncccc1Cl [I.1-27] | – | – | – | – | – | – | – | – | > 75 | > 75 |
